Results as given in paper PMC12528448, “Resistance to CDK7 inhibitors directed by acquired mutation of a conserved residue in cancer cells” (The EMBO Journal, 2025).
Values joined by “and” are separate entries in the source; they are usually repeats but may differ in a detail not shown here. Equal entries are not always repeated.

Columns and labels:
[1] = test system: MCF7-CDK7-D97N cells; experiment: Growth assay (SRB), MCF7 CDK7-D97N knock-in; assay type: cell-based, human; details: for % Growth: MCF7 CDK7 D99N, biological reps
Outline: (§1)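 CRISPR-Cas9 knock-in lines were treated with increasing drug concentrations two days after seeding, then grown 4 days. Cell number by SRB staining; IC50 from non-linear regression.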

[2] = test system: 22Rv1-CDK7-D97N cells; experiment: Growth assay (SRB), 22Rv1 CDK7-D97N knock-in pool; assay type: cell-based, human; details: for % Growth: 22Rv1 CDK7 D99N
Outline: as §1

[3] = molecular target: T1, CDK7-D97N (Homo sapiens, UniProt P50613, D97N); experiment: NanoBRET Target Engagement assay, K-10 tracer displacement in HEK293 cells; assay type: binding; details: for % Occupacy: CDK7 D97N, replicates N1-N3
T1 construct: expressed in transfected cells; host or cells: HEK293
T1 sequence (P50613 whole entry D97N): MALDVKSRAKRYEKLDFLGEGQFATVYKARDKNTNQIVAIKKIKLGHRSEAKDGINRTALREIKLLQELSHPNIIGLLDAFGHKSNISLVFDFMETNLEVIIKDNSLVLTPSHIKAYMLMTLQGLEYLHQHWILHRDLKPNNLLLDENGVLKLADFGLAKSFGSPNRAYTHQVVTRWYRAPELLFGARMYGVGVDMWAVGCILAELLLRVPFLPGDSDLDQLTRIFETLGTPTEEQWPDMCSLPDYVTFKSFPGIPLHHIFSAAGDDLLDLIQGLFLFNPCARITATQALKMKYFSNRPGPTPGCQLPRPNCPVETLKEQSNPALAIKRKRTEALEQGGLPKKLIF
Outline: (§2)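 BRET ratio taken as acceptor 590–610 nm over donor 410–490 nm ×1000. EC50 obtained by nonlinear regression; occupancy from tracer and vehicle controls.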

[4] = molecular target: T2, CDK7-WT (Homo sapiens, UniProt P50613); experiment: as above; assay type: binding; details: for % Occupacy: CDK7 WT, replicates N1-N3
T2 construct: expressed in transfected cells; host or cells: HEK293
T2 sequence (P50613 whole entry): as the sequence (P50613 whole entry D97N) above, with N97D counted along it
Outline: as §2

[5] = test system: 22Rv1 cells; experiment: Growth assay (SRB), 22Rv1; assay type: cell-based, human
Outline: (§3)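 SRB: dosing at day 2 post-seed, rising concentrations, 4 d incubation, IC50 via non-linear fit. IncuCyte: drug at day 2, confluency read q6h, doubling time from exponential curve fit.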

[6] = test system: 22Rv1-SamR cells; experiment: Growth assay (SRB), Samuraciclib-resistant 22Rv1; assay type: cell-based, human; details: for % Growth: 22Rv1 SamR, 4 days, biological reps
Outline: as §3

[7] = test system: LNCaP cells; experiment: Growth assay (SRB), LNCaP; assay type: cell-based, human
Outline: as §3

[8] = test system: MCF7 cells; experiment: Growth assay (SRB), MCF7; assay type: cell-based, human; details: for % Growth: biological reps
Outline: as §3

- IC50 ([1]; MCF7-CDK7-D97N, 4 days, SRB): 0.17 nM
- EC50 ([3]; CDK7-D97N, K-10 0.5 µM, HEK293): 31.3 nM
- % Occupacy ([3]; Log10 Conc. (nM) 0.09): 2.93% and 3.17% and -0.97%
- % Occupacy ([3]; Log10 Conc. (nM) 0.69): 10.17% and 10.16% and 4.41%
- % Occupacy ([3]; Log10 Conc. (nM) 1.29): 36.69% and 35.14% and 27.40%
- % Occupacy ([3]; Log10 Conc. (nM) 1.89): 86.86% and 82.26% and 69.03%
- % Occupacy ([3]; Log10 Conc. (nM) 2.49): 95.98% and 95.66% and 91.52%
- % Occupacy ([3]; Log10 Conc. (nM) 3.10): 98.50% and 98.01% and 96.95%
- % Occupacy ([3]; Log10 Conc. (nM) 3.70): 100.42% and 100.34% and 99.95%
- % Occupacy ([3]; Log10 Conc. (nM) 4.30): 97.72% and 96.80% and 96.75%
- % Occupacy ([3]; Log10 Conc. (nM) -0.52): -0.36% and 0.88% and 0.71%
- % Occupacy ([3]; Log10 Conc. (nM) -1.12): 3.66% and 1.72% and -0.86%
- % Occupacy ([3]; Log10 Conc. (nM) -1.72): 3.68% and 0.83% and -1.37%
- Difference in EC50 values for mutant and WT CDK7 ([3]; NanoBRET): no significant difference
- EC50 ([4]; CDK7-WT, K-10 0.5 µM, HEK293): 29 nM
- % Occupacy ([4]; Log10 Conc. (nM) 0.09): 5.29% and 2.02% and 1.09%
- % Occupacy ([4]; Log10 Conc. (nM) 0.69): 14.34% and 11.55% and 9.36%
- % Occupacy ([4]; Log10 Conc. (nM) 1.29): 40.53% and 32.34% and 29.30%
- % Occupacy ([4]; Log10 Conc. (nM) 1.89): 74.64% and 88.34% and 86.64%
- % Occupacy ([4]; Log10 Conc. (nM) 2.49): 98.27% and 99.01% and 95.02%
- % Occupacy ([4]; Log10 Conc. (nM) 3.10): 99.51% and 100.88% and 97.39%
- % Occupacy ([4]; Log10 Conc. (nM) 3.70): 102.75% and 104.94% and 102.49%
- % Occupacy ([4]; Log10 Conc. (nM) 4.30): 86.99% and 86.89% and 86.73%
- % Occupacy ([4]; Log10 Conc. (nM) -0.52): 10.37% and -0.26% and 2.09%
- % Occupacy ([4]; Log10 Conc. (nM) -1.12): 9.68% and 0.78% and 5.84%
- % Occupacy ([4]; Log10 Conc. (nM) -1.72): 8.54% and -2.37% and 7.63%
- Resistance (Fold), fold increase in IC50 of 22Rv1-SamR relative to 22Rv1 ([6]; 22Rv1-SamR vs 22Rv1): 1.0 fold
- IC50 ([8]; 4 days, SRB): 0.89 nM
Structure (SMILES): CN(C)C/C=C/C(=O)Nc1ccc(C(=O)N[C@@]2(C)CCC[C@@H](Nc3ncc(Cl)c(-c4c[nH]c5ccccc45)n3)C2)nc1 [SY-1365]
- Resistance (Fold) ([1]; MCF7-CDK7-D97N vs MCF7 WT): 0.19 fold
- % Growth ([1]; Log10 Conc. (nM) 3.70, 4 days): -16.61%
- % Growth ([1]; Log10 Conc. (nM) -1.12, 4 days): 78.15% and 70.71% and 82.37% and 82.39%
- % Growth ([1]; Log10 Conc. (nM) -1.72, 4 days): 83.93% and 103.71% and 98.90%
- Sensitivity in growth assays ([2]; 22Rv1-CDK7-D97N vs parental): remaining sensitive
- % Growth ([2]; Log10 Conc. (nM) 0.09): 48.76% and 39.48%
- % Growth ([2]; Log10 Conc. (nM) 0.69): 32.85% and 26.42%
- % Growth ([2]; Log10 Conc. (nM) 1.29): 16.40% and 13.77%
- % Growth ([2]; Log10 Conc. (nM) 1.89): -9.18% and -1.73%
- % Growth ([2]; Log10 Conc. (nM) 3.70): -12.72%
- % Growth ([2]; Log10 Conc. (nM) -0.52): 87.25% and 62.47%
- % Growth ([2]; Log10 Conc. (nM) -1.12): 95.17% and 93.47%
- % Growth ([2]; Log10 Conc. (nM) -1.72): 98.87%
- % Growth ([5]; 22Rv1, Log10 Conc. (nM) 0.09): 53.71% and 72.88%
- % Growth ([5]; 22Rv1, Log10 Conc. (nM) 0.69): 19.90% and 19.70%
- % Growth ([5]; 22Rv1, Log10 Conc. (nM) 1.29): 16.91% and 19.74%
- % Growth ([5]; 22Rv1, Log10 Conc. (nM) 1.89): -7.92% and -2.43%
- % Growth ([5]; 22Rv1, Log10 Conc. (nM) 2.49): -5.73% and -3.13%
- % Growth ([5]; 22Rv1, Log10 Conc. (nM) 3.10): 1.12%
- % Growth ([5]; 22Rv1, Log10 Conc. (nM) 3.70): -11.26%
- % Growth ([5]; 22Rv1, Log10 Conc. (nM) -0.52): 94.30% and 92.75%
- % Growth ([5]; 22Rv1, Log10 Conc. (nM) -1.12): 97.77% and 104.48%
- % Growth ([5]; 22Rv1, Log10 Conc. (nM) -1.72): 103.08%
- % Growth ([5]; 22Rv1, Log10 Conc. (nM) 0.09, 4 days, biological reps): 64.96% and 59.63%
- % Growth ([5]; 22Rv1, Log10 Conc. (nM) 0.69, 4 days, biological reps): 28.69% and 25.19%
- % Growth ([5]; 22Rv1, Log10 Conc. (nM) 1.29, 4 days, biological reps): 21.21% and 16.89%
- % Growth ([5]; 22Rv1, Log10 Conc. (nM) 1.89, 4 days, biological reps): 0.26% and -4.14%
- % Growth ([5]; 22Rv1, Log10 Conc. (nM) 2.49, 4 days, biological reps): 1.87% and -4.53%
- % Growth ([5]; 22Rv1, Log10 Conc. (nM) 3.10, 4 days, biological reps): -0.83% and -4.41%
- % Growth ([5]; 22Rv1, Log10 Conc. (nM) 3.70, 4 days, biological reps): 0.68% and -4.68%
- % Growth ([5]; 22Rv1, Log10 Conc. (nM) -0.52, 4 days, biological reps): 89.73% and 90.72%
- % Growth ([5]; 22Rv1, Log10 Conc. (nM) -1.12, 4 days, biological reps): 93.97% and 90.45%
- Sensitivity in growth assays ([6]; 22Rv1-SamR): remained sensitive
- % Growth ([6]; Log10 Conc. (nM) 0.09): 50.67% and 45.27%
- % Growth ([6]; Log10 Conc. (nM) 0.69): 34.60% and 27.89%
- % Growth ([6]; Log10 Conc. (nM) 1.29): 26.06% and 19.62%
- % Growth ([6]; Log10 Conc. (nM) 1.89): -2.71% and -9.74%
- % Growth ([6]; Log10 Conc. (nM) 2.49): -0.26% and -8.99%
- % Growth ([6]; Log10 Conc. (nM) -0.52): 81.58% and 73.70%
- % Growth ([6]; Log10 Conc. (nM) -1.12): 90.71% and 90.62%
- % Growth ([7]; Log10 Conc. (nM) 0.09): 56.73% and 37.69%
- % Growth ([7]; Log10 Conc. (nM) 1.29): 1.68% and -7.82%
- % Growth ([7]; Log10 Conc. (nM) 2.49): -22.61% and -22.62%
- % Growth ([7]; Log10 Conc. (nM) 3.70): -23.75%
- % Growth ([7]; Log10 Conc. (nM) -0.52): 84.52% and 77.18%
- % Growth ([7]; Log10 Conc. (nM) -1.12): 86.80% and 137.61%
- % Growth ([7]; Log10 Conc. (nM) -1.72): 105.02%
- % Growth ([8]; Log10 Conc. (nM) 3.70, 4 days): -12.18%
- % Growth ([8]; Log10 Conc. (nM) -0.52, 4 days): 88.75% and 65.89% and 87.60% and 88.37%
- % Growth ([8]; Log10 Conc. (nM) -1.12, 4 days): 97.02% and 94.10% and 95.64% and 94.95%
- % Growth ([8]; Log10 Conc. (nM) -1.72, 4 days): 90.31% and 94.08% and 94.26%
